Source: PubChem BioAssay AID2124 (Sanford-Burnham Center for Chemical Genomics, 2009)
Results filed as inconclusive are left out. Active and inactive are the calls of the source. How the calls were made is not given here; tested in MIN6 cells.

Experiment: GFP-wavelength compound autofluorescence in cells – imaging, high-content imaging, artefact control, dose response (AID 2124);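 further: cells exposed to compound for 48 hours before fixing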
Settings: cells, GFP-channel autofluorescence, high-content imaging, at 10 µM; for z-score: stronger effect = higher value

CCCN1CC=C2C(C#N)=C(N)C(C#N)(C#N)C(c3cc(OC)ccc3OC)C2C1 (stereo not given)
z-score: 0.52 | cell count: 3140 cells

CCc1ccccc1N1C(=O)/C(=C/c2ccc(N3CCN(C)CC3)o2)C(=O)NC1=S
z-score: -0.35 (inactive) | cell count: 2580 cells

N#C/C(=C\c1ccc(N2CCOCC2)o1)c1nc2ccccc2[nH]1
z-score: 0.96 | cell count: 2400 cells

CCOc1ccc(NC(=O)Cn2c(=O)oc3ccccc32)cc1
z-score: -0.25 (inactive) | cell count: 3070 cells

COc1cccc(NC(=O)Cn2c(-c3cncs3)nc3ccccc32)c1
z-score: -0.39 (inactive) | cell count: 3160 cells

CC(=O)Oc1ccc2c(c1)Oc1cc(OC(C)=O)ccc1C21OC(=O)c2ccccc21
z-score: 4.32 | cell count: 3270 cells

CCc1cc(C(=O)OC)c(NC(=O)CC2Sc3ccc(C(F)(F)F)cc3NC2=O)s1 (stereo not given)
z-score: -0.39 (inactive) | cell count: 2390 cells

Cc1csc(NC(=O)CN(C)S(=O)(=O)c2cccc3cccnc23)n1
z-score: -0.33 (inactive) | cell count: 3250 cells

O=C(Cn1ncn2c(cc3ccccc32)c1=O)NCc1ccco1
z-score: -0.39 (inactive) | cell count: 2610 cells

CCCCNC(=O)C1CC(=O)N(C2CCCCC2)C1 (stereo not given)
z-score: -0.33 (inactive) | cell count: 3070 cells

O=C1C2C3C=CC(C3)C2C(=O)N1CCc1ccccc1 (stereo not given)
z-score: -0.33 (inactive) | cell count: 3430 cells

Cc1cc(C)n(C(=O)CCC2COc3ccccc3O2)n1 (stereo not given)
z-score: -0.25 (inactive) | cell count: 2940 cells

O=C(c1cccs1)c1no[n+]([O-])c1C(=O)c1cccs1
z-score: -0.31 (inactive) | cell count: 586 cells

CCCCN1C(=O)C2(NNc3ccccc3O2)c2ccccc21 (stereo not given)
z-score: -0.31 (inactive) | cell count: 2820 cells

O=Nc1c(O)n(Cc2ccc(Cl)cc2)c2ccccc12
z-score: -0.33 (inactive) | cell count: 3420 cells

COC(=O)c1ccc(COc2ccc3c(C)c(C)c(=O)oc3c2)o1
z-score: -0.33 (inactive) | cell count: 3400 cells

Oc1c(/C=C/C=C/C=Nc2ccccc2)sc(=S)n1Cc1ccccc1
z-score: -0.33 (inactive) | cell count: 2740 cells

CC1CN(C(=O)CCn2c(=O)oc3ccccc32)CC(C)O1 (stereo not given)
z-score: -0.39 (inactive) | cell count: 3070 cells

Nc1c(C(=O)C2CC2)sc2nc(-c3ccccc3)cc(C(F)(F)F)c12
z-score: 0.39 | cell count: 3090 cells

Cn1c(=O)n(C)c2cc(NC(=O)COc3ccc(Cl)cc3)ccc21
z-score: -0.33 (inactive) | cell count: 3010 cells

O=c1ccc(NS(=O)(=O)c2ccccc2)cn1Cc1ccc(Cl)c(Cl)c1
z-score: -0.38 (inactive) | cell count: 3280 cells

Cc1cc(NC(=O)/C(C#N)=C/c2ccc(-c3ccc(SC(F)F)cc3)o2)n(-c2ccccc2)n1
z-score: 0.3 | cell count: 2190 cells

CCN1/C(=C/c2ccc3cc(C)ccc3[n+]2CC)Sc2ccccc21
z-score: 1.64 | cell count: 190 cells

CCCCc1ccc2[nH]cc(CCN)c2c1
z-score: -0.38 (inactive) | cell count: 2320 cells

Cc1ccc(-c2cc(N)n(-c3ccccc3)n2)cc1
z-score: -0.33 (inactive) | cell count: 3090 cells

CCOC(=O)CNC(=O)c1cn(C)c(=O)c2cc(OC)c(OC)cc12
z-score: -0.33 (inactive) | cell count: 3170 cells

CCC(=O)OCC(=O)c1c(N)n(Cc2ccccc2)c(=O)n(C)c1=O
z-score: -0.33 (inactive) | cell count: 2890 cells

CCOC(=O)c1c(-c2ccc(C)cc2)csc1NC(=O)/C(C#N)=C/c1ccc(O)c(OC)c1
z-score: -0.3 (inactive) | cell count: 2890 cells

Nc1nc(-c2ccc(Cl)cc2)c(N=Nc2ccc(S(=O)(=O)N3CCOCC3)cc2)s1
z-score: -0.32 (inactive) | cell count: 2990 cells

COc1ccccc1NC(=O)/C=C1\SCC(=O)N1C
z-score: -0.25 (inactive) | cell count: 3000 cells

N/C(=N\OC(=O)C1CCCCC1)c1cccc([N+](=O)[O-])c1
z-score: -0.33 (inactive) | cell count: 3090 cells

COc1ccc(C(=O)N(CN2CCCC2=O)c2ccc(C)cc2)cc1
z-score: -0.33 (inactive) | cell count: 3380 cells

COc1ccc(C)cc1NC(=O)CC(NC(C)=O)c1ccccc1 (stereo not given)
z-score: -0.33 (inactive) | cell count: 3060 cells

CC1CCCC(C)N1C(=O)CSc1nnc(-c2cccs2)o1 (stereo not given)
z-score: -0.33 (inactive) | cell count: 2440 cells

COc1ccc(NC(=O)c2sc3nc(-c4cccnc4)ccc3c2N)cc1
z-score: -0.3 (inactive) | cell count: 2880 cells

COc1ccc(N(CCN2C(=O)c3ccccc3C2=O)C(=O)c2cccc([N+](=O)[O-])c2)cc1
z-score: -0.25 (inactive) | cell count: 2790 cells

Cc1cc(C)cc(NC(=O)/C=C/c2ccc([N+](=O)[O-])s2)c1
z-score: 0.02 | cell count: 960 cells

O=c1[nH]c2ccccc2nc1/C=C/c1ccc(F)cc1
z-score: -0.32 (inactive) | cell count: 3060 cells

Cc1ccccc1-c1nnc(-c2ccc(Cl)cc2)o1
z-score: -0.26 (inactive) | cell count: 2820 cells

COC(=O)c1sccc1NC(=O)c1cc(OC)c(OC)c(OC)c1
z-score: -0.39 (inactive) | cell count: 3020 cells

COC(=O)c1[nH]c2cccc(Cl)c2c1NC(=O)CN(C)C1CCCCC1
z-score: -0.33 (inactive) | cell count: 3280 cells

NC(=O)c1cc2ccc(O)cc2oc1=NCc1ccccc1
z-score: -0.33 (inactive) | cell count: 3140 cells

Cc1[nH]c2ccccc2c1Cc1nnc(SCC(N)=O)o1
z-score: -0.26 (inactive) | cell count: 2780 cells

CCCCCn1nc(-c2ccccc2)c2nc3ccccc3nc21
z-score: 1.27 | cell count: 3200 cells

C=CCN1C(=O)/C(=C/c2ccc(N3CCOCC3)o2)C(=O)NC1=S
z-score: -0.32 (inactive) | cell count: 3270 cells

CCc1nnc(NC(=O)CCC(=O)NCc2ccccc2OC)s1
z-score: -0.38 (inactive) | cell count: 2890 cells

Cc1ccc(-n2c(Cc3cccs3)nnc2SCC(=O)OC(C)C)cc1
z-score: -0.38 (inactive) | cell count: 2980 cells

O=C(NCc1cccs1)c1ccc(N2CCCCC2)nc1
z-score: -0.33 (inactive) | cell count: 2760 cells

CCN(CC)c1ccc2cc(C#N)c(=O)oc2c1
z-score: -0.32 (inactive) | cell count: 3390 cells

CCOC(=O)N1CCN(C(=O)NC2CCCCC2)CC1
z-score: -0.38 (inactive) | cell count: 3150 cells

N#CC(C#N)=C1C=C2C=C(N3CCOCC3)CCC2CC1 (stereo not given)
z-score: 1.21 | cell count: 3080 cells

Cc1ccccc1SCc1noc(C(=O)NC(C)C)c1C(=O)O
z-score: -0.39 (inactive) | cell count: 3150 cells

CCOC(=O)COc1ccc(C(=O)NC2CCCCC2)cc1
z-score: -0.38 (inactive) | cell count: 3240 cells

Cc1ccc(S(=O)(=O)C(C#N)c2nc3ccccc3nc2N2CCC(C)CC2)cc1 (stereo not given)
z-score: -0.33 (inactive) | cell count: 3260 cells

Cc1ccccc1OCC(=O)OC1CCN(C)CC1
z-score: -0.38 (inactive) | cell count: 2940 cells

Nc1c(C(=O)c2cccs2)sc2nsc(SCCN3CCCCC3)c12
z-score: 0.3 | cell count: 2930 cells

O=C(COC(=O)c1ccco1)NCC1CCCO1 (stereo not given)
z-score: -0.39 (inactive) | cell count: 2790 cells

CCN(CC)c1ccc2cc(-c3nnc(-c4ccccc4)o3)c(=O)oc2c1
z-score: 1.33 | cell count: 3220 cells

COc1ccccc1NS(=O)(=O)c1cc([N+](=O)[O-])ccc1N/N=C/c1sc(N2CCOCC2)nc1-c1ccccc1
z-score: 0.22 | cell count: 2550 cells

CC(=O)Nc1nc(-c2ccc(Br)s2)cs1
z-score: -0.39 (inactive) | cell count: 3320 cells

COc1cccc(/C=N/NC(=O)c2oc3nc(-c4ccccc4)cc(-c4ccco4)c3c2N)c1
z-score: -0.32 (inactive) | cell count: 3030 cells

Cc1nn(-c2ccccc2)c(C)c1NC(=O)CCl
z-score: -0.33 (inactive) | cell count: 1910 cells

COc1ccc(OCC(=O)Nc2ccc(S(=O)(=O)Nc3cc(C)nc(C)n3)cc2)cc1
z-score: -0.33 (inactive) | cell count: 3070 cells

N#C/C(=C/c1ccc(N2CCCCC2)o1)C(=O)NCCc1c[nH]c2ccccc12
z-score: 0.47 | cell count: 3410 cells

CSc1c(C#N)c(N)nc2sc(C(=O)c3ccc(Cl)c(Cl)c3)c(N)c12
z-score: -0.28 (inactive) | cell count: 2770 cells

CCCC(=O)c1c(C)c2ccccc2n1C
z-score: -0.38 (inactive) | cell count: 3160 cells

N#C/C(=C/c1ccc(N2CCCCC2)o1)C(=O)Nc1ccc(Cl)cc1
z-score: 3 | cell count: 2990 cells

Cc1cccc(-c2ncc(CN3CCCC(CO)(Cc4ccccc4C)C3)cn2)c1 (stereo not given)
z-score: -0.35 (inactive) | cell count: 3340 cells

Cc1c(C(=O)O)cccc1-c1ccc(/C=C2/NC(=O)N(c3ccccc3)C2=O)o1
z-score: -0.39 (inactive) | cell count: 3120 cells

Cc1ccc(N2C(=O)c3cccc4c(N5CCN(C)CC5)ccc(c34)C2=O)c2cccnc12
z-score: 0.07 | cell count: 1800 cells

COc1ccc(CC(=O)N2CCN(C)CC2)cc1
z-score: -0.33 (inactive) | cell count: 3120 cells

O=C(NC1=NCCS1)C1Cc2ccccc2CN1C(=O)c1ccccc1 (stereo not given)
z-score: -0.34 (inactive) | cell count: 2680 cells

O=C(NCCCN1CCCCCC1)C1CC(=O)N(C2CCCC2)C1 (stereo not given)
z-score: -0.33 (inactive) | cell count: 3260 cells

Cc1ccc([N+](=O)[O-])cc1NC(=O)c1cccs1
z-score: -0.33 (inactive) | cell count: 3030 cells

Cc1cc(/C=C2\SC(=S)NC2=O)c(C)n1C1CC1
z-score: -0.3 (inactive) | cell count: 3040 cells

COc1cccc(NC(=O)N2CCN(c3nnnn3-c3ccccc3)CC2)c1
z-score: -0.33 (inactive) | cell count: 2880 cells

CN(C)/C=C1/Nc2ccccc2C1=O
z-score: -0.36 (inactive) | cell count: 3060 cells

COCCN1CN(S(=O)(=O)c2ccccc2)c2nc3ccccc3nc21
z-score: -0.38 (inactive) | cell count: 3380 cells

COc1ccc(-c2nnn(CC(=O)N(CCO)C(C(=O)NC3CCCC3)c3ccc(F)cc3)n2)cc1 (stereo not given)
z-score: -0.33 (inactive) | cell count: 3200 cells

CCOC(=O)CC1C(=O)NCCN1c1nc2ccc(C)cn2c(=O)c1/C=C1\SC(=S)N(C(C)CC)C1=O (stereo not given)
z-score: -0.02 | cell count: 2960 cells
